This note sets out measurements from ChEMBL document CHEMBL1141546, “Diamine derivatives containing imidazolidinylidene propanedinitrile as a new class of histamine H3 receptor antagonists. Part I” (Bioorg Med Chem Lett, 2008).

Test [1] deals with T1, Histamine H3 receptor (Homo sapiens, UniProt Q9Y5N1). Nature of the test: Displacement of [3H]N-alpha-methylhistamine from human cloned histamine H3 receptor expressed in monkey COS7 cells at 0.1 uM. Format: cell-based. The settings on record: COS-7. In general terms: Loss of bound radioactivity is the signal in a displacement assay; it reports binding, not function.
The target of test [2] is T1, Histamine H3 receptor. Nature of the test: Displacement of [3H]N-alpha-methylhistamine from human cloned histamine H3 receptor expressed in monkey COS7 cells at 1 uM. Format: cell-based. The settings on record: COS-7.
Test [3] deals with Histamine H3 receptor (Rattus norvegicus) (UniProt Q9QYN8). Nature of the test: Displacement of [3H]N-alpha-methylhistamine from histamine H3 receptor in rat striatal membrane at 0.1 uM. It counts as cell membranes. The settings on record: Striatum.
Test [4] shares this target. The test is described as follows: Displacement of [3H]N-alpha-methylhistamine from histamine H3 receptor in rat striatal membrane at 1 uM. The settings on record: Striatum. It counts as cell membranes.
The target in test [5] is T1, Histamine H3 receptor. Nature of the test: Displacement of [3H]N-alpha-methylhistamine from human cloned histamine H3 receptor expressed in monkey COS7 cells. It counts as cell-based, COS-7.
The target of test [6] is T2, Histamine H3 receptor (Rattus norvegicus, UniProt Q9QYN8). The test is described as follows: Displacement of [3H]N-alpha-methylhistamine from histamine H3 receptor in rat striatal membrane. It counts as cell membranes, Striatum.
Test [7] deals with Histamine H1 receptor (Homo sapiens) (UniProt P35367). Nature of the test: Displacement of [3H]pyrilamine from human H1 receptor expressed in monkey COS7 cells at 1 uM. It counts as cell-based. The settings on record: COS-7.
Test [8] concerns the target Histamine H2 receptor (Homo sapiens) (UniProt P25021). The test is described as follows: Displacement of [3H]tiotidine from human H2 receptor expressed in monkey COS7 cells at 1 uM. Format: cell-based. The settings on record: COS-7.
For test [9], the target named is Histamine H4 receptor (Homo sapiens) (UniProt Q9H3N8). Nature of the test: Displacement of [3H]histamine from human H4 receptor expressed in monkey COS7 cells at 1 uM. The settings on record: COS-7. It counts as cell-based.
For test [10], the target named is Histamine H1 receptor (Homo sapiens) (UniProt P35367). The test is described as follows: Displacement of [3H]pyrilamine from human H1 receptor expressed in monkey COS7 cells at 10 uM. It counts as cell-based. The settings on record: COS-7.
The target in test [11] is Histamine H2 receptor (Homo sapiens) (UniProt P25021). The test is described as follows: Displacement of [3H]tiotidine from human H2 receptor expressed in monkey COS7 cells at 10 uM. Format: cell-based. The settings on record: COS-7.
The target in test [12] is Histamine H4 receptor (Homo sapiens) (UniProt Q9H3N8). Nature of the test: Displacement of [3H]histamine from human H4 receptor expressed in monkey COS7 cells at 10 uM. It counts as cell-based. The settings on record: COS-7.
Test [13] deals with T2, Histamine H3 receptor. The test is described as follows: Antagonist activity at histamine H3 receptor in rat forebrain assessed as inhibition of [3H]histamine release from synaptosomes. It counts as functional, subcellular, Brain.

By inhibition is commonly meant the drop in the measured response relative to a control, in per cent. Usually pKi stands for −log10 of the Ki, conventionally taken in molar units. By pIC50 is commonly meant −log10 of the IC50, conventionally taken in molar units.

pIC50, pKi: −log10 of the molar value.

Histamine H3 receptor (Rattus norvegicus), sequence (Q9QYN8 whole entry): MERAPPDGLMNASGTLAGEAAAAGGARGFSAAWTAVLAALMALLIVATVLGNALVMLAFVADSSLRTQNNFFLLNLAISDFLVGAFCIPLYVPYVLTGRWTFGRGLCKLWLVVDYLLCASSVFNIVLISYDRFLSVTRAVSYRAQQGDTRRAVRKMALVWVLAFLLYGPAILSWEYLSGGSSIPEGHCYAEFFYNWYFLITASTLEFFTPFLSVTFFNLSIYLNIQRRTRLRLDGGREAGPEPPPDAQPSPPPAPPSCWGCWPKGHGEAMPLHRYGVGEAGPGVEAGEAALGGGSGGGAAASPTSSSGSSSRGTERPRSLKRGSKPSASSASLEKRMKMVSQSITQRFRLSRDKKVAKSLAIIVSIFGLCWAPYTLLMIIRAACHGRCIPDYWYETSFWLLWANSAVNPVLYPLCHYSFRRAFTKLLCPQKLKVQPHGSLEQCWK
T2 sequence (Q9QYN8 whole entry): as above
Histamine H4 receptor (Homo sapiens), sequence (Q9H3N8 whole entry): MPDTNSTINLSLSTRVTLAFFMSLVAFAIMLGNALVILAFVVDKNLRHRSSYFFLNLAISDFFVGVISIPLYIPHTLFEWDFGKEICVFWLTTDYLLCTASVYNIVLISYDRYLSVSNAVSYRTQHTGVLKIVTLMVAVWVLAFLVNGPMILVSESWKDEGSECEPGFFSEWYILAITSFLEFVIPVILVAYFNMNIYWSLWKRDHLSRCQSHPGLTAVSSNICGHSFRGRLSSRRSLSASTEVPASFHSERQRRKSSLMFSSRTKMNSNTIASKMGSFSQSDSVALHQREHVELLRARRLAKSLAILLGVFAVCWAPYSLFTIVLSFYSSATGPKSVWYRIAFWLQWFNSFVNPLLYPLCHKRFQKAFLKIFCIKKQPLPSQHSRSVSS
T1 sequence (Q9Y5N1 whole entry): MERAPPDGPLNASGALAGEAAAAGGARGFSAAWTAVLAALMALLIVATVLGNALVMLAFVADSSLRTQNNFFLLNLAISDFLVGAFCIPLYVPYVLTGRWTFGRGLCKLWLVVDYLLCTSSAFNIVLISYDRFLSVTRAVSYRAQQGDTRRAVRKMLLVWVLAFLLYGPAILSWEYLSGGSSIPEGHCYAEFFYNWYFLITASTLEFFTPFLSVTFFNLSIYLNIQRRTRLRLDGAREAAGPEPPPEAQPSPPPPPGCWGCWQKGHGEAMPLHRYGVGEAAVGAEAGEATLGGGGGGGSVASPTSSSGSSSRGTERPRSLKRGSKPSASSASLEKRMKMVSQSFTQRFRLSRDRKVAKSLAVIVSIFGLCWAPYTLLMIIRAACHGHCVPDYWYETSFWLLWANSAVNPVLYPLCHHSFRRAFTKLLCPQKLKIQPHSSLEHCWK
Histamine H1 receptor (Homo sapiens), sequence (P35367 whole entry): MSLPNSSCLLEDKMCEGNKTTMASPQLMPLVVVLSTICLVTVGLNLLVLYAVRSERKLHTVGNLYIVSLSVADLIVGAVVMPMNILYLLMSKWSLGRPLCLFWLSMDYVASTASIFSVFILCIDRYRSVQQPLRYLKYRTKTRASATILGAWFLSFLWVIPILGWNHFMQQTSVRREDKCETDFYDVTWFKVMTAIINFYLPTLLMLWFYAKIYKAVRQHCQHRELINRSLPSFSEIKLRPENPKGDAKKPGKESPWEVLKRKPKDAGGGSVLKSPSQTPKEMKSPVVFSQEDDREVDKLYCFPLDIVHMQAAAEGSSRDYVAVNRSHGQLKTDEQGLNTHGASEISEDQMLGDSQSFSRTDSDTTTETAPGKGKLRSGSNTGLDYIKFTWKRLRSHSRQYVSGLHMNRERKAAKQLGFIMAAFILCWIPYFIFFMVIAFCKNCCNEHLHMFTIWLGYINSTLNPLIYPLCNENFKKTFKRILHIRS
Histamine H2 receptor (Homo sapiens), sequence (P25021 whole entry): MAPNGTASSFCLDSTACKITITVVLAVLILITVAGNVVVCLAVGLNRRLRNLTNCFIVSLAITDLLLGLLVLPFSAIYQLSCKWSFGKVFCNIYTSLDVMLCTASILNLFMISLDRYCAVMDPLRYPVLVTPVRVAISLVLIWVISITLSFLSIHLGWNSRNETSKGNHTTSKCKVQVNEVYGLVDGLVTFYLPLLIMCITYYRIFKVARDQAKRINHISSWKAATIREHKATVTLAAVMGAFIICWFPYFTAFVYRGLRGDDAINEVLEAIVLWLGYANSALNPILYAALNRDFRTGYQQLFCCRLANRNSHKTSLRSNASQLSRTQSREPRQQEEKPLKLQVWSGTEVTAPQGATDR

In the case of `N#CC(C#N)=C1N(CCCCN2CCCCC2)CCN1CCCN1CCCCC1`, the inhibition came to 48% at Histamine H3 receptor [1], 74% on Histamine H3 receptor [2], 65% in test [3] and 88% in [4].

On to `CC1CCCN1CCN1CCN(CCN2CCCCC2)C1=C(C#N)C#N` (racemic), for which the pKi was 9.42 on Histamine H3 receptor [5] and 9.16 on Histamine H3 receptor [6]. Besides, the inhibition in test [7] is 5%; in test [8] it was -8%; in [9], 2%; in test [10] it was 9%; in [11], -4%; in [12], 6%.

For the molecule `C[C@@H]1CCCN1CCN1CCN(CCN2CCC[C@H]2C)C1=C(C#N)C#N`, the pKi on Histamine H3 receptor [5] was 8.89; on Histamine H3 receptor [6] it was 8.96. Moreover, the inhibition in [7] is 0%; in test [8], -7%; in test [9] it was 9%; in test [10] it was -4%; in [11], -1%; in test [12], 8%.

As to `N#CC(C#N)=C1N(CCN2CCCCC2)CCN1CCN1CCC(O)C1` (racemic), the inhibition on Histamine H3 receptor [1] was determined as 49%; at Histamine H3 receptor [2], 70%; in test [3], 57%; in test [4], 86%.

Turning to `N#CC(C#N)=C1N(CCCCN2CCCCC2)CCN1CCN1CCCCC1`, the pKi at Histamine H3 receptor [5] is 7.80; on Histamine H3 receptor [6] it was 8.07.

Regarding `C[C@@H]1CCCN1CCN1CCN(CCN2CCC[C@@H]2C)C1=C(C#N)C#N`, the pKi at Histamine H3 receptor [5] is 9.33; at Histamine H3 receptor [6] it was 9.11. In addition, the inhibition was -3% in test [7]; 6% in [9]; 7% in test [10]; -9% in test [11]; -3% in test [12].

On to `N#CC(C#N)=C1N(CCN2CCCCC2)CCN1CCN1CCOCC1`, for which the inhibition came out at 37% on Histamine H3 receptor [1], 69% on Histamine H3 receptor [2], 44% in test [3] and 82% in test [4].

Turning to `N#CC(C#N)=C1N(CCCCN2CCCCC2)CCN1CCCCN1CCCCC1`, the inhibition came to 43% at Histamine H3 receptor [1], 68% on Histamine H3 receptor [2], 51% in test [3] and 85% in [4].

As to `c1cc(OCCCN2CCCCC2)ccc1CN1CCCCC1` [JNJ-5207852], at Histamine H3 receptor [6], the pKi was 8.90.

As to `CC1CCCN1CCN1CCN(CCN2CCCC2C)C1=C(C#N)C#N` (racemic), the pKi at Histamine H3 receptor [5] was 9.48; at Histamine H3 receptor [6], 9.17. Moreover, the pIC50 on Histamine H3 receptor [13] is 8.31. For the same molecule, the inhibition in [7] is 10%; in [8] it was 1%; in test [9], -8%; in test [10], 21%; in [11], 0%; in [12], -7%.

As to `N#CC(C#N)=C1N(CCCN2CCCCC2)CCN1CCN1CCCCC1`, the pKi was 8.18 at Histamine H3 receptor [5] and 8.20 on Histamine H3 receptor [6].

Regarding `N#CC(C#N)=C1N(CCCN2CCCCC2)CCN1CCCN1CCCCC1`, the pKi at Histamine H3 receptor [5] was 8.62; on Histamine H3 receptor [6] it was 8.59. Moreover, the pIC50 at Histamine H3 receptor [13] is 7.55. Moreover, the inhibition in test [7] is 3%; in test [8], -5%; in test [9], 11%; in test [10] it was 21%; in [11], -4%; in [12] it was -1%.

For the molecule `CCN(CCCN(C)C)CCN1CCN(Cc2cccc3ccccc23)C1=C(C#N)C#N`, the pKi on Histamine H3 receptor [5] was 7.08; at Histamine H3 receptor [6] it was 7.12.

As for `N#CC(C#N)=C1N(CCN2CCCCC2)CCN1CCN1CCCCC1`, the pKi at Histamine H3 receptor [5] was 7.62; at Histamine H3 receptor [6], 7.26.

Consider `C[C@H]1CCCN1CCN1CCN(CCN2CCC[C@@H]2C)C1=C(C#N)C#N`, for which the pKi is 9.47 at Histamine H3 receptor [5] and 9.32 on Histamine H3 receptor [6]. In addition, the pIC50 on Histamine H3 receptor [13] was 8.72. The inhibition in test [7] was 8%; in [8], 2%; in [9], 9%; in [10], 14%; in test [11], -2%; in test [12] it was 0%.

Consider `N#CC(C#N)=C1N(CCCN2CCCCC2)CCN1Cc1cccc2ccccc12`, for which the pKi is 7.44 at Histamine H3 receptor [5] and 6.16 at Histamine H3 receptor [6].

Take `CN1CCN(CCN2CCN(CCN3CCCCC3)C2=C(C#N)C#N)CC1`: the inhibition was found to be 37% at Histamine H3 receptor [1], 74% at Histamine H3 receptor [2], 43% in test [3] and 82% in test [4].
